From ChEMBL document CHEMBL1127032, “(Dipropylphenoxy)phenylacetic acids: a new generation of nonpeptide angiotensin II receptor antagonists” (J Med Chem, 1993) come the findings set out here.

The target of experiment [1] is T1, Type-1 angiotensin II receptor (Oryctolagus cuniculus, UniProt P34976).
T1 sequence (P34976 whole entry): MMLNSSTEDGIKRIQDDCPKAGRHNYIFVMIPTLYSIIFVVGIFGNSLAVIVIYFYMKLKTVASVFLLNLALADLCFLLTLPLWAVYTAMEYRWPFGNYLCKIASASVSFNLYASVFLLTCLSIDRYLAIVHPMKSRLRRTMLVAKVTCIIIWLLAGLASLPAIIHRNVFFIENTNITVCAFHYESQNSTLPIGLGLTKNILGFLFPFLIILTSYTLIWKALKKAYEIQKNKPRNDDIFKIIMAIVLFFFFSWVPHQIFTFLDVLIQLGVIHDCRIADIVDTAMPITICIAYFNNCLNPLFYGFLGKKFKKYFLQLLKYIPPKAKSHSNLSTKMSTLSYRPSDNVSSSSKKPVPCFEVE
The experiment is described as follows: Displacement of […][Sar1,IIe8]AII from rabbit aorta Angiotensin II receptor, type 1. The format is tissue-based.

The target of experiment [2] is T2, Type-2 angiotensin II receptor (Rattus norvegicus, UniProt P35351).
T2 sequence (P35351 whole entry): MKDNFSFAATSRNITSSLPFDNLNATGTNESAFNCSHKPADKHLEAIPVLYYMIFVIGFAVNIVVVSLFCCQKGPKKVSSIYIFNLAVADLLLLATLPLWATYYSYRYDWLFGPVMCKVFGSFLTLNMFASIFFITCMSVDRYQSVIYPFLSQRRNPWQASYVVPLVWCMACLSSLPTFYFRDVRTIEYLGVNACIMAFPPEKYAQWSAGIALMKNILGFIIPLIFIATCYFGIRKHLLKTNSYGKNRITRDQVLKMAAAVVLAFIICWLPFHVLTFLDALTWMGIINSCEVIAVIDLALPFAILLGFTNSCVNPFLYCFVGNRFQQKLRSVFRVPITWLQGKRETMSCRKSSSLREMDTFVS
The experiment is described as follows: Displacement of […][Sar1,IIe8]AII from rat midbrain angiotensin II (AT2) receptor.

The IC50 is the concentration that inhibits the measured activity by half. A high value points to weaker potency. In the case of `CCCc1cc(Cn2c(CC)nc3c(C)cc(C)nc32)cc(CCC)c1OC(C(=O)O)c1ccccc1C` (stereo not drawn), the IC50 in experiment [1] is 1.2 nM; in experiment [2], 7500 nM.

For `CCCc1cc(Cn2c(CC)nc3c(C)cc(C)nc32)cc(CCC)c1OC(C(=O)O)c1cccc(Cl)c1` (stereo not drawn), the IC50 in experiment [1] was 0.75 nM; in experiment [2], 2300 nM.

As to `CCCc1cc(Cn2c(CC)nc3c(C)cc(C)nc32)cc(CCC)c1OC(C(=O)O)c1ccccc1` (stereo not drawn), the figures for the concentration for half-maximal inhibition (IC50) in experiment [1] and in experiment [2] were 0.9 nM and 2600 nM, respectively.

As for `CCCc1cc(Cn2c(CC)nc3c(C)cc(C)nc32)cc(CCC)c1OC(C(=O)O)c1cccc(C)c1` (stereo not drawn), the figures for the IC50 in experiment [1] and in experiment [2] were 0.74 nM and 800 nM, respectively.

For `CCCc1cc(Cn2c(CC)nc3c(C)cc(C)nc32)cc(CCC)c1OC(C(=O)O)c1cccc(-c2ccccc2)c1` (stereo not drawn), the IC50 stood at 6.8 nM in experiment [1] and 740 nM in experiment [2].

Consider `CCCc1cc(Cn2c(CC)nc3c(C)cc(C)nc32)cc(CCC)c1OC(C(=O)O)c1ccccc1Cl` (stereo not drawn), for which the IC50 was found to be 0.53 nM in experiment [1] and 3500 nM in experiment [2].

For the compound `CCCc1cc(Cn2c(CC)nc3c(C)cc(C)nc32)cc(CCC)c1OC(C(=O)O)c1ccc(CC)cc1` (stereo not drawn), the IC50 in experiment [1] came out at 19 nM; in experiment [2], 240 nM.

As for `CCCc1cc(Cn2c(CC)nc3c(C)cc(C)nc32)cc(CCC)c1OC(C(=O)O)c1ccc(C)cc1` (stereo not drawn), the results for the IC50 in experiment [1] and in experiment [2] were 4 nM and 400 nM, respectively.

For the compound `CCCc1cc(Cn2c(CC)nc3c(C)cc(C)nc32)cc(CCC)c1OC(C(=O)O)c1ccc(Oc2ccccc2)cc1` (stereo not drawn), the half-inhibitory concentration (IC50) in experiment [1] was 5.2 nM; in experiment [2], 1900 nM.

`CCCc1cc(Cn2c(CC)nc3c(C)cc(C)nc32)cc(CCC)c1OC(C(=O)O)c1ccc(Cl)cc1` (stereo not drawn): the figures for the half-maximal inhibitory concentration (IC50) in experiment [1] and in experiment [2] were 2.8 nM and 450 nM, respectively.

With `CCCc1cc(Cn2c(CC)nc3c(C)cc(C)nc32)cc(CCC)c1OC(C(=O)O)c1cccc(Oc2ccccc2)c1` (stereo not drawn), the IC50 in experiment [1] came out at 0.47 nM; in experiment [2], 1600 nM.

As for `CCc1nc2c(C)cc(C)nc2n1Cc1ccc(-c2ccccc2-c2nnn[nH]2)cc1` [L-158809], the IC50 in experiment [2] was over 10000 nM.
